Data reported in patent US4839374A, “4-((Bicyclic heterocyclyl)-methyl and -hetero)-piperidines” (Janssen Pharmaceutica, N.V., priority 1987, dated 1989).
Like-named read-outs stand apart in the source and are kept apart here.

What was measured:
[1] = test system: compound 48/80-induced lethality; experiment: Protection of rats from compound 48/80-induced lethality; assay type: in vivo, rats of an inbred Wistar strain; conditions: Rattus norvegicus, 4 h, read-out: Compound 48/80 lethality test in rats ED50, s.c. or p.o. 1 h before compound 48/80 0.5 mg/kg i.v.; protection of 50% of animals, survival after 4 hours
Summary of the method: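 Male inbred Wistar rats (240-260 g), starved overnight, dosed subcutaneously or orally with compound or 0.9% NaCl before compound 48/80 challenge. Survival at 4 hours counted as protection. ED50 in mg/kg is the dose protecting 50% of animals from lethality.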

effects of serotonin = experiment: Antagonistic activity on the effects of serotonin in the gastric lesion test (lesions induced by compound 48/80); assay type: in vivo, rats of a Wistar inbred strain; conditions: Rattus norvegicus, po, read-out: gastric lesion test ED50
Procedure: Antagonistic activity on the effects of serotonin in the gastric lesion test.
The shock, followed by dead, can be avoided if the rats are pretreated with a classical H 1 antagonist.
Male rats of a Wistar inbred strain, weighing 220-250 g, were starved overnight, water being available ad libitum. The test compounds were administered orally as a solution or as a suspension in aqueous medium. A control rat and a "blank" rat received the test compound. One hour later 5-[4-(diphenylmethyl)1-piperazinylmethyl]-1-methyl-1H-benzimidazole-2-methanol was administered subcutaneously to all rats at the dose of 2.5 mg/kg. […] Four hours after the intravenous injection of compound 48/80, the rats were decapitated and the stomachs were removed. Subsequently the stomachs were inspected for distension and contents (blood, fluid, food) and thoroughly rinsed. The macroscopic lesions were scored from 0 to +++, 0 corresponding to complete absence of visible lesions and the highest score corresponding to reddish rough patches covering more than half the glandular area.
The second column of tables 1-4 show for a number of compounds of formula (I) the doses (in mg/kg body weight) at which the distension of the stomach as well as the lesions in the glandular area of the stomach are completely absent in 50% of the test rats (ED50 -value).

[2] = compound 48/80 1 mg/kg i.v., distension and lesions of stomach completely absent in 50% of rats

| Compound | ED50 [1] | ED50 (effects of serotonin; [2]) | ED50 (effects of serotonin) |
| --- | --- | --- | --- |
| CN(CCN1CCC(Cc2nc3ccccc3n2Cc2ccc(F)cc2)CC1)c1ncccn1 [Compound 514, N-[2-[4-[[1-[(4-fluorophenyl)methyl]-1H-benzimidazol-2-yl]methyl]-1-piperidinyl]ethyl]-N-methyl-2-pyrimidinamine] | 0.02 mg/kg | 0.63 mg/kg |  |
| c1cnc(NCCN2CCC(Cc3nc4ccccc4n3Cc3cccs3)CC2)nc1 [Compound 336] | 0.01 mg/kg |  | 0.08 mg/kg |
| COc1ccc(CCN2CCC(Cc3nc4ccccc4n3Cc3ccco3)CC2)cc1 [Compound 229] | 0.04 mg/kg | 0.63 mg/kg |  |
| Cc1nc2n(c(=O)c1CCN1CCC(Cc3nc4ccccc4n3Cc3ccco3)CC1)CCCC2 [Compound 226] | 0.08 mg/kg |  | 0.04 mg/kg |
| Cc1nc2n(c(=O)c1CCN1CCC(Oc3nc4ccccc4n3Cc3ccc(F)cc3)CC1)CCCC2 [Compound 264] | 0.04 mg/kg | 0.63 mg/kg |  |
| c1cnc(NCCN2CCC(Cc3nc4cccnc4n3Cc3cccs3)CC2)nc1 [Compound 342] | 0.02 mg/kg | 0.16 mg/kg |  |
| O=c1[nH]c2ccccc2c(=O)n1CCN1CCC(Cc2nc3cccnc3n2Cc2ccc(F)cc2)CC1 [Compound 224] | 0.04 mg/kg |  | 0.08 mg/kg |
| O=c1cc[nH]c(NCCN2CCC(Cc3nc4ccccc4n3Cc3ccc(F)cc3)CC2)n1 [Compound 331, 2-[[2-[4-[[1-[(4-fluorophenyl)methyl]-1H-benzimidazol-2-yl]methyl]-1-piperidinyl]ethyl]amino]-4(1H)-pyrimidinone] | 0.04 mg/kg | 0.02 mg/kg |  |
| Cc1nc2ccccn2c(=O)c1CCN1CCC(Cc2nc3ccccc3n2Cc2ccc(F)cc2)CC1 [Compound 214] | 0.08 mg/kg |  | 0.04 mg/kg |
| Fc1ccc(Cn2c(CC3CCN(CCNc4ncccn4)CC3)nc3ncccc32)cc1 [Compound 348, N-[2-[4[[1-[(4-fluorophenyl)methyl]-1H-imidazo[4,5-b]pyridin-2-yl]methyl]-1-piperidinyl]ethyl]-2-pyrimidinamine] | 0.04 mg/kg |  | 0.04 mg/kg |
| CC(C)N1CCC(Cc2nc3ccccc3n2Cc2ccccc2)CC1 [Compound 94] | 0.08 mg/kg | 0.63 mg/kg |  |
| Cc1nc2ccccn2c(=O)c1CCN1CCC(Cc2nc3ncccc3n2Cc2ccc(F)cc2)CC1 [Compound 272] | 0.08 mg/kg | 0.63 mg/kg |  |
| O=C(NCCN1CCC(Cc2nc3ccccc3n2Cc2ccc(F)cc2)CC1)c1ccsc1 [Compound 431] | 0.04 mg/kg | 0.005 mg/kg |  |
| Fc1ccc(Cn2c(CC3CCN(CCc4ccccn4)CC3)nc3cccnc32)cc1 [Compound 101] | 0.02 mg/kg | 0.31 mg/kg |  |
| CC(C)NC(=O)CCN1CCC(Cc2nc3cccnc3n2Cc2ccc(F)cc2)CC1 [Compound 143, 4-[[3-[(4-fluorophenyl)methyl]-3H-imidazo[4,5-b]pyridin-2-yl]methyl]-N-(1-methylethyl)-1-piperidinepropanamide] | 0.04 mg/kg | 0.63 mg/kg |  |
| COc1ccc(CCN2CCC(Cc3nc4ccc(O)cc4n3Cc3ccc(F)cc3)CC2)cc1 [Compound 276] | 0.04 mg/kg | 0.31 mg/kg |  |
| Fc1ccc(Cn2c(CC3CCN(CCn4c(=S)[nH]c5ccccc54)CC3)nc3ccccc32)cc1 [Compound 493, 1-[2-[4-[[1-[(4-fluorophenyl)methyl]-1H-benzimidazol-2-yl]methyl]-1-piperidinyl]ethyl]-1,3-dihydro-2H-benzimidazole-2-thione] | 0.08 mg/kg |  | 0.04 mg/kg |
| Cc1nc2scc(C)n2c(=O)c1CCN1CCC(Cc2nc3ccccc3n2Cc2ccc(F)cc2)CC1 [Compound 219] | 0.08 mg/kg | 0.63 mg/kg |  |
| O=C(c1ccccc1)N(CCN1CCC(Cc2nc3ccccc3n2Cc2ccc(F)cc2)CC1)c1ncccn1 [Compound 508, N-[2-[4-[[1-[(4-fluorophenyl)methyl]-1H-benzimidazol-2-yl]methyl]-1-piperidinyl]ethyl]-N-(2-pyrimidinyl)benzamide] | 0.08 mg/kg | 0.16 mg/kg |  |
| Cc1ncsc1CCN1CCC(Cc2nc3ccccc3n2Cc2ccc(F)cc2)CC1 [Compound 182] | 0.04 mg/kg | 0.63 mg/kg |  |

| Compound | ED50 [1] | ED50 (effects of serotonin; [2]) | ED50 (effects of serotonin) |
| --- | --- | --- | --- |
| O=C1OCCN1CCN1CCC(Cc2nc3ccccc3n2Cc2ccc(F)cc2)CC1 [Compound 385, 3-[2-[4-[[1-[(4-fluorophenyl)methyl]-1H-benzimidazol-2-yl]methyl]-1-piperidinyl]ethyl]2-oxazolidinone] | 0.01 mg/kg |  | 0.08 mg/kg |
| O=c1c2ccccc2[nH]c(=S)n1CCN1CCC(Cc2nc3ccccc3n2Cc2ccc(F)cc2)CC1 [Compound 460, 3-[2-[4-[[1-[(4-fluorophenyl)methyl]-1H-benzimidazol-2-yl]methyl]-1-piperidinyl]ethyl]-2,3-dihydro-2-thioxo-4(1H)-quinazolinone] | 0.08 mg/kg | 0.63 mg/kg |  |
| CC(=O)CCN1CCC(Cc2nc3ccccc3n2Cc2ccc(F)cc2)CC1 [Compound 102, 4-[4-[[1-[(4-fluorophenyl)methyl]-1H-benzimidazol-2-yl]methyl]-1-piperidinyl]-2-butanone] | 0.02 mg/kg | 0.31 mg/kg |  |
| Cc1nc2scc(C)n2c(=O)c1CCN1CCC(Cc2nc3cccnc3n2Cc2ccco2)CC1 [Compound 151, 6-[2-[4-[[3-(2-furanylmethyl)-3H-imidazo[4,5-b]pyridin-2-yl]methyl]-1-piperidinyl]ethyl]-3,7-dimethyl-5H-thiazolo[3,2-a]pyrimidin-5-one] | 0.02 mg/kg | 0.16 mg/kg |  |
| c1csc(Cn2c(CC3CCN(CCNc4nccs4)CC3)nc3ccccc32)c1 [Compound 356] | 0.02 mg/kg |  | 0.08 mg/kg |
| Fc1ccc(Cn2c(CC3CCN(CCNc4cc(Cl)ncn4)CC3)nc3ccccc32)cc1 [Compound 384] | 0.08 mg/kg | 0.63 mg/kg |  |
| Fc1ccc(Cn2c(CC3CCN(CCNc4nc5cnccc5s4)CC3)nc3ccccc32)cc1 [Compound 332, N-[2-[4-[[1-[(4-fluorophenyl)methyl]-1H-benzimidazol-2-yl]methyl]-1-piperidinyl]ethyl]thiazolo[4,5-c]pyridin-2-amine] | 0.08 mg/kg |  | 0.08 mg/kg |
| N#CCN1CCC(Cc2nc3ccccc3n2Cc2ccc(F)cc2)CC1 [Compound 283] | 0.04 mg/kg | 0.63 mg/kg |  |
| COc1ccc(CCN2CCC(Cc3nc4cccnc4n3Cc3cccs3)CC2)cc1 [Compound 238] | 0.08 mg/kg | 0.63 mg/kg |  |
| O=C(NCCN1CCC(Cc2nc3ccccc3n2Cc2ccc(F)cc2)CC1)c1cccs1 [Compound 443, N-[2-[4-[[1-[(4-fluorophenyl)methyl]-1H-benzimidazol-2-yl]methyl]-1-piperidinyl]ethyl]-2-thiophenecarboxamide] | 0.02 mg/kg | 0.16 mg/kg |  |
| c1ccc(Cn2c(CC3CCN(CCNc4nccs4)CC3)nc3cccnc32)cc1 [Compound 362] | 0.08 mg/kg | 0.63 mg/kg |  |
| Cc1nc2n(c(=O)c1CCN1CCC(Cc3nc4cccnc4n3Cc3ccco3)CC1)CCS2 [Compound 168] | 0.04 mg/kg | 0.63 mg/kg |  |
| Cn1c(O)nc2c(NCCN3CCC(Cc4nc5ccccc5n4Cc4ccc(F)cc4)CC3)ncnc21 [Compound 371] | 0.16 mg/kg | 0.63 mg/kg |  |
| Fc1ccc(Cn2c(CC3CCN(CCNc4nc5cccnc5s4)CC3)nc3ccccc32)cc1 [Compound 330, N-[2-[4-[[1-[(4-fluorophenyl)methyl]-1H-benzimidazol-2-yl]methyl]-1-piperidinyl]ethyl]thiazolo[5,4-b]pyridin-2-amine] | 0.08 mg/kg | 0.16 mg/kg |  |
| O=c1c2ccccc2[nH]c(=S)n1CCN1CCC(Cc2nc3ccccc3n2Cc2ccco2)CC1 [Compound 461, 3-[2-[4-[[1-(2-furanylmethyl)-1H-benzimidazol-2-yl]methyl]-1-piperidinyl]ethyl]-2,3-dihydro-2-thioxo-4(1H)-quinazolinone] | 0.08 mg/kg |  | 0.08 mg/kg |
| Cc1csc(NCCN2CCC(Cc3nc4ccccc4n3Cc3ccc(F)cc3)CC2)n1 [Compound 456, 4-[(1-[(4-fluorophenyl)methyl]-1H-benzimidazol-2-yl]methyl]-N-(4-methyl-2-thiazolyl)-1-piperidineethanamine] | 0.01 mg/kg | 0.63 mg/kg |  |
| Fc1ccc(Cn2c(CC3CCN(CCNc4ncccn4)CC3)nc3ccncc32)cc1 [Compound 351, N-[2-[4-[[3-[(4-fluorophenyl)methyl]-3H-imidazo[4,5-c]pyridin-2-yl]methyl]-1-piperdinyl]-ethyl]-2-pyrimidinamine] | 0.02 mg/kg |  | 0.08 mg/kg |
| Oc1ccc(CCN2CCC(Cc3nc4ccc(O)cc4n3Cc3ccc(F)cc3)CC2)cc1 [Compound 505, 1-[(4-fluorophenyl)methyl]-2-[[1-[2-(4-hydroxyphenyl)ethyl]-4-piperidinyl]-methyl]-1H-benzimidazol-6-ol] | 0.04 mg/kg |  | 0.04 mg/kg |
| COc1ccc(CCN2CCC(Cc3nc4cccnc4n3Cc3ccco3)CC2)cc1 [Compound 189] | 0.02 mg/kg | 0.63 mg/kg |  |
| c1coc(Cn2c(CC3CCN(CCNc4nccs4)CC3)nc3ccccc32)c1 [Compound 335] | 0.02 mg/kg | 0.16 mg/kg |  |
